Drawing on US20250026721A1, “COMPOUNDS AND METHODS FOR MODULATING RAS-PI3K” (Vividion Therapeutics, Inc., priority 2023, published 2025), this text covers IC50 and Emax for three compounds.

Experiment [1] concerns pAKT(S473) in FaDu cell line. Description: In vitro Phospho-AKT(S473) HTRF analysis in FaDu cells. The format is cell-based. Conditions: Homo sapiens, 0.5 h; for IC50: FaDu cells, 30 minutes at 37° C.; for Emax: FaDu, read-out: FaDu pAKT Imax % control. In short, it runs like this: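 FaDu or H358 cells were plated overnight in medium with 1% FBS, then exposed to a compound dose response for 30 minutes at 37° C. Phospho-AKT(S473) levels were measured by HTRF.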

The test system of experiment [2] is pAKT(S473) in H358 cell line. As to the kind of experiment: In vitro Phospho-AKT(S473) HTRF analysis in H358 cells. The class given is cell-based. Conditions: Homo sapiens, NCI-H358, 0.5 h; for IC50: H358 cells, 30 minutes at 37° C.; for Emax: read-out: H358 pAKT Imax % control. As for the experimental part:
Example 5. In Vitro Phosgho-AKT(S473) Analysis
Functional activity of the compounds to inhibit pAKT were assessed in FaDu or H358 cell lines as indicated below.
• Complete Media • FBS, Corning catalog #35-010-CV • Anti-Anti, Gibco catalog #15240-062 • 96 well plate, Corning catalog #3610 • TrypLE, Gibco catalog #12604013 • Phospho-AKT(S473) HTRF kit, Cisbio catalog #64AKSPET
Cells were detached from the tissue culture flask with TrypLE. The cells were pelleted at 500×g for 5 min, TrypLe was removed and then resuspended in the necessary volume of media+1% FBS to give the appropriate cell density (17,500 cells/mL for FaDu; 20,000 cells/mL for H358). 100 μL of cell suspension/well was dispensed into the 96-well plate while keeping the outer wells of the plate free of cells and filled with PBS to prevent evaporation of interior wells. The plate was incubated at 37° C. and allowed to adhere overnight. The cells were treated with a dose response of compound and incubated at 37° C. for 30 minutes. The cells were then processed and pAKT(S473) levels were assessed following the specifications of the Cisbio HTRF kit.
In general terms: Time-resolved FRET reads energy transfer from a long-lived donor to a nearby acceptor.

Another experiment deals with T1, PIK3CA (Homo sapiens, UniProt P42336).
T1 construct: endogenous in cells; host or cells: Jurkat cell lysate
Description: In vitro ELISA target engagement assay for PIK3CA in Jurkat cellular lysate (competition with PIK3CA Biotin Probe). The format is binding. Conditions: 1 hour at rt, then 500 nM PIK3CA Biotin Probe, read-out: Elisa Target Engagement Assay (TE50). In short, it runs like this:
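Competition format in Jurkat lysate: compound (serial dilutions, top 200 μM) for 1 h at rt, then 500 nM final biotinylated PIK3CA probe for 1 h at rt. Sandwich ELISA with capture antibody and Neutravidin-HRP luminescence read-out measured probe-labelled PIK3CA, giving TE50.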

T1 sequence (P42336 whole entry): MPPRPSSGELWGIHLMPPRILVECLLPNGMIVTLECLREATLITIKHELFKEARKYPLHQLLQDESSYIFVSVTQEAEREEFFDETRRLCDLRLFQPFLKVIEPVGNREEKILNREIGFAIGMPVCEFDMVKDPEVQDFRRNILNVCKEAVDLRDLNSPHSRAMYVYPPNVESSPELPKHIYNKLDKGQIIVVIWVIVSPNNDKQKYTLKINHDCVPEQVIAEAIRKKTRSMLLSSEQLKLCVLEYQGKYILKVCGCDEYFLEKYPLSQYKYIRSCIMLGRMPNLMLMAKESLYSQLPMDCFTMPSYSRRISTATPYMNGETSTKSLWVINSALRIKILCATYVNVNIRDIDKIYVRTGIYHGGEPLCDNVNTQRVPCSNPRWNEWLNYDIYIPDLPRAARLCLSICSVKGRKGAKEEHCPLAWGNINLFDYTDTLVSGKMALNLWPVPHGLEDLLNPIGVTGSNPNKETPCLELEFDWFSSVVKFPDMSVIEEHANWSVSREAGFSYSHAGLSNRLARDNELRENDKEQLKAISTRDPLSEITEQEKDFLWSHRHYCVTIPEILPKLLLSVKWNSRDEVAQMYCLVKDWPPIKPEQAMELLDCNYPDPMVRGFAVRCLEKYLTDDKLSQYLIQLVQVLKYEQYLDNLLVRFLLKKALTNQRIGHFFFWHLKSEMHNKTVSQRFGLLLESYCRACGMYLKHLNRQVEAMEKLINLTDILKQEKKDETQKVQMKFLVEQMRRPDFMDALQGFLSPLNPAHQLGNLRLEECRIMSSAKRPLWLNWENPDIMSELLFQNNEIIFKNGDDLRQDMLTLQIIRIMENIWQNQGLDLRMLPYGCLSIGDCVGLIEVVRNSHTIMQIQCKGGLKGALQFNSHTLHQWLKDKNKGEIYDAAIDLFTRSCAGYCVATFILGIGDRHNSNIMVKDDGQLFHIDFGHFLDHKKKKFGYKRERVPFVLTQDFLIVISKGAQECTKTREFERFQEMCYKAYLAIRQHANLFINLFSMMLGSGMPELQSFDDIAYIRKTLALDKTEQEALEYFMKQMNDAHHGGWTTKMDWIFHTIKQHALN
T1 sequence (P27986 whole entry partner): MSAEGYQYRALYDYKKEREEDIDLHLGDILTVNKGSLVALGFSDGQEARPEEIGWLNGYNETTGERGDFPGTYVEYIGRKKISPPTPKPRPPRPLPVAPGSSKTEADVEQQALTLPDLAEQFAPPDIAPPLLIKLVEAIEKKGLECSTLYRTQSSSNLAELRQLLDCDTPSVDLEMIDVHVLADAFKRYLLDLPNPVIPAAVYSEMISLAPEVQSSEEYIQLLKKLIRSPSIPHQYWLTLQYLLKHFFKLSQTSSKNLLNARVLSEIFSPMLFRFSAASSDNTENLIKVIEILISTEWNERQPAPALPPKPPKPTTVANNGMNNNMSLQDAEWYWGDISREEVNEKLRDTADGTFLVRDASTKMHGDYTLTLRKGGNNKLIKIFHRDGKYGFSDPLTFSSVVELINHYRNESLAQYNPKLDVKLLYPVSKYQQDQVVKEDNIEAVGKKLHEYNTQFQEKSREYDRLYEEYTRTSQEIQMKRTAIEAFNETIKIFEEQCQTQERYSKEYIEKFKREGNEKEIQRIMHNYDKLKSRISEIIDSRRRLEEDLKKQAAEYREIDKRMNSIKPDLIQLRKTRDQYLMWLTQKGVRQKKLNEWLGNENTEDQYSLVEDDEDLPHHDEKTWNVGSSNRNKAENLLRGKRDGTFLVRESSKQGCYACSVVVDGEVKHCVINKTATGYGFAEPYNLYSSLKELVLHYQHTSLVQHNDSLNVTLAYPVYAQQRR

Consider `Cc1ccc([C@@H]2CN(CC(F)(F)F)C[C@@H]2C(=O)N2CCC[C@](F)(C(=O)N[C@H](C)/C=C\S(C)(=O)=O)CC2)c(Cl)c1` (single isomer, unassigned) [Compound 169, (R)-1-((3*R,4*R)-4-(2-chloro-4-methylphenyl)-1-(2,2,2-trifluoroethyl)pyrrolidine-3-carbonyl)-4-fluoro-N—((R,Z)-4-(methylsulfonyl)but-3-en-2-yl)azepane-4-carboxamide], for which the IC50 was determined as 0.154 µM in experiment [1], 0.202 µM in experiment [2] and 0.21 µM on PIK3CA. For the same compound, the figures for the Emax in experiment [1] and in experiment [2] were 108% and 106%, respectively.

Take `C[C@H](/C=C\S(C)(=O)=O)NC(=O)[C@]1(F)CCN(C(=O)[C@H]2CN(CC(F)(F)F)C[C@H]2c2ccccc2Cl)[C@@H](C)C1` (single isomer, unassigned) [Compound 302, (2*S,4*S)-1-((3R,4R)-4-(2-chlorophenyl)-1-(2,2,2-trifluoroethyl)pyrrolidine-3-carbonyl)-4-fluoro-2-methyl-N-((R,Z)-4-(methylsulfonyl)but-3-en-2-yl)piperidine-4-carboxamide]: the IC50 in experiment [1] came to 0.696 µM; in experiment [2], 0.464 µM; on PIK3CA it was 0.44 µM. In addition, the Emax in experiment [1] came to 101%; in experiment [2] it was 87.2%.

Turning to `C[C@H](/C=C\S(C)(=O)=O)NC(=O)[C@@]1(F)CCCN(C(=O)[C@@H]2CCN(CC(F)(F)F)C[C@H]2c2ccccc2Cl)CC1` (single isomer, unassigned) [Compound 306, (R)-1-((3*R,4*R)-3-(2-chlorophenyl)-1-(2,2,2-trifluoroethyl)piperidine-4-carbonyl)-4-fluoro-N-((R,Z)-4-(methylsulfonyl)but-3-en-2-yl)azepane-4-carboxamide], the results for the IC50 (in experiment [1]; in experiment [2]; on PIK3CA) were 0.334 µM, 0.263 µM and 0.31 µM, respectively. For the same compound, the Emax was found to be 93% in experiment [1] and 88% in experiment [2].
